Experimental data as given in publication PMC6493465 (Oncotarget, 2019).

How the values were obtained:
[1] = test system: MCL-1, BCL2L10, survivin and cPARP in MOLM-13 cells; test: Western blot analysis of anti-apoptotic protein expression, MOLM-13; assay type: cell-based, human; details: MOLM-13, 24-hour treatment; gilteritinib 30 nM, AraC 100 nM, IDR 3 nM, Aza 1000 nM
Procedure: Cell lysates were prepared in radioimmunoprecipitation assay buffer (Thermo Fisher Scientific Inc., Rockford, IL) supplemented with phosphatase (Thermo Fisher Scientific Inc.) and protease inhibitors (Merck, Billerica, MA), electrophoresed on 4%–15% gels, and subsequently transferred to polyvinylidene difluoride membranes. The membranes were blocked using Blocking One (Nacalai Tesque Inc., Kyoto, Japan) for 1 hour and then incubated overnight with primary antibodies to MCL-1, BCL210, cPARP (all from Cell Signaling Technology, Danvers, MA, USA), survivin (R&D Systems, Inc., Minneapolis, MN), and α-actin (MilliporeSigma, Burlington, MA). The membranes were washed with TBS Tween-20 (TBS-T) buffer and incubated with appropriate horseradish peroxidase-linked secondary antibodies (Cell Signaling Technology Japan K.K.) for 1 hour at room temperature. After washing the membranes in TBS-T buffer, enhanced chemiluminescence Western Blotting Detection Reagent ECL-prime (GE Healthcare, Fairfield, CT) was applied. Signals were detected with a charge-coupled device camera (ImageQuant LAS4000; GE Healthcare); signal intensity was quantified using ImageQuant™ TL software (GE Healthcare).

MV4-11 cells = test: Antitumor effects in mice xenografted with MV4-11 cells; assay type: in vivo, mouse; details: MV4-11 xenograft; for Regression of Tumor / Inhibition of Tumor Growth: Day 21
Procedure: (§1) Four or five-week-old male nude mice (CanN.Cg-Foxn1nu/Crl/Crlj[nu/nu]; Charles River Laboratories Japan, Inc., Kanagawa, Japan) were maintained under specific pathogen-free conditions and received a standard diet and water supply throughout the study. All animal experimental procedures were performed in accordance with the Animal Ethics Committee of Astellas Pharma, Inc. For in vivo experiments, suspensions of MV4-11 and MOLM-13 cells in PBS at a concentration of 1 × 10^8 cells/mL were mixed with an equivalent volume of Matrigel® Basement Membrane Matrix, resulting in a final cell concentration of 5 × 10^7 cells/mL. The cells were subcutaneously injected into the flanks of mice at a concentration of 5 × 10^6 cells/0.1 mL/mouse. After tumor establishment, mice were divided into groups with similar mean tumor volume across groups.
(§2) Dosing volumes were 10 mL/kg for oral and intraperitoneal (IP) administration, and 5 or 10 mL/kg for intravenous (IV) administration. Treatment was administered once daily on designated days. The first day of treatment was designated as Day 0 and observation continued until Day 20 or 21 for mice xenografted with MV4-11 cells and Day 16 for mice xenografted with MOLM-13 cells. In mice xenografted with MV4-11 cells for experiments involving triple combination treatment, the control group received oral administration of vehicle (0.5% methylcellulose, Days 0–20), IP administration of vehicle (saline, Days 0–4), and IV administration of vehicle (saline, Days 0–2).
The AraC/DNR group received oral vehicle (0.5% methylcellulose, Days 0–20), IP AraC (50 mg/kg/day, Days 0–4), and IV DNR (2 mg/kg/day, Days 0–2). The AraC/IDR group received vehicle (Days 0–20), IP AraC (50 mg/kg/day, Days 0–4), and IV IDR (0.5 mg/kg/day, Days 0–2). […] For experiments involving Aza, the control group received oral vehicle (0.5% methylcellulose, Days 0–20) and IV vehicle (saline, Days 0–4). The Aza group received oral vehicle (0.5% methylcellulose, Days 0–20) and IV Aza (3 mg/kg/day, Days 0–4). […] For mice that received chemotherapy only, administration schedules for each agent were the same as those described in the triple combination groups.
(§3) Mice with established tumors were selected and divided into groups on Day −1 or Day 0, so that the mean tumor volumes were similar across groups. Body weights and tumor volumes assessed on Day −1 were designated as Day 0 values. Body weight and tumor diameter were measured for each experimental group; antitumor activity was expressed as the percent inhibition of tumor growth and the percent of tumor regression (further details are outlined in the Supplementary Materials). […] Complete regression was defined as no palpable or observable tumor. […]
Tumor evaluation 100 × (1 – [mean tumor volume of each group on the last day of observation] / [mean tumor volume of each
Body weight and tumor diameter were measured group on Day 0]) in xenografted nude mice xenografted with MV4-11 cells on the indicated days for each experimental group: 1. Treatments for pharmacokinetic assays […]
and 21. Body weight and tumor assessments obtained on with MV4-11 cells received one of the following Day −1 were designated as Day 0 (baseline) measurements. combination treatments: 1.
(§4) Tumor diameter was measured using a caliper and tumor 0.5% methylcellulose); 2. Oral methylcellulose (0.5%) in volume was determined by calculating the volume of an combination with IV IDR (0.5 mg/kg) and IP AraC (50 ellipsoid (ie, Length × Width2 × 0.5). The percent inhibition mg/kg); 3. […]
of tumor growth was calculated using the formula: kg) and IP AraC (50 mg/kg). For combination PK assays […]
on the last day of observation) – (tumor volume of each with MV4-11 received one of the following: […]
of each mouse on the last day of observation) – (tumor methylcellulose (0.5%) plus IV Aza (3 mg/kg); 3. Oral […]
(§5) The percent tumor regression was calculated using […]

MOLM-13 cells [2] = test: Antitumor effects in mice xenografted with MOLM-13 cells; assay type: in vivo, mouse; details: MOLM-13 xenograft
Procedure: as §1, §2, §3
www.oncotarget.com Oncotarget, Supplementary Materials […]
Body weight and tumor diameter were measured group on Day 0]) in xenografted nude mice xenografted with MV4-11 cells on the indicated days for each experimental group: 1. […]
as §4
of tumor growth was calculated using the formula: kg) and IP AraC (50 mg/kg). […]
as §5

MOLM-13 cells [3] = test: Annexin-V staining (apoptosis), MOLM-13; assay type: cell-based, human; details: 48 hours; for percentage of annexin V-positive cells: control 4.1%
Procedure: MV4-11 cells were seeded in 12-well plates at a concentration of 2 × 10^5 cells/well and cultured overnight. […] MOLM-13 cells were seeded in 12-well plates at a concentration of 1 × 10^5 cells/well and cultured overnight.
Cells were harvested and incubated with Guava® Nexin Reagent (Merck Millipore Corporation, Billerica, MA). Annexin-V-positive cells were assessed using a Guava® PCA microcytometer (Merck Millipore Corporation); the percentage of annexin-V-positive cells (2000 cells per sample) was analyzed using CytoSoft™ software (Merck Millipore Corporation). Mean percentages of annexin-V-positive cells were derived from three independent experiments.

[4] = Aza experiment: oral gilteritinib 3 mg/kg/day Days 0-20, IV Aza 3 mg/kg/day Days 0-4
[5] = table title day 21, Aza experiment: oral gilteritinib 30 mg/kg/day Days 0-16, IV Aza 3 mg/kg/day Days 0-4

| SMILES | expression of MCL-1, BCL2L10, and survivin [1] | body weight on Day 21 between control and treatment groups (MV4-11 cells) | Regression of Tumor (MV4-11 cells; Aza experiment) [%] | Inhibition of Tumor Growth (MV4-11 cells; [4]) [%] | Inhibition of Tumor Growth (MOLM-13 cells [2]; [5]) [%] | mean percentage of annexin V-positive cells (MOLM-13 cells [3]; single agent: IDR 3 nM, AraC 100 nM or Aza 1000 nM) [%] | Regression of Tumor (MV4-11 cells; AraC/DNR experiment) [%] | Inhibition of Tumor Growth (MV4-11 cells; AraC/DNR experiment: oral gilteritinib 3 mg/kg/day Days 0-20, IP AraC 50 mg/kg/day Days 0-4, IV DNR 2 mg/kg/day Days 0-2) [%] | Regression of Tumor (MV4-11 cells; AraC/IDR experiment) [%] | Inhibition of Tumor Growth (MV4-11 cells; AraC/IDR experiment: oral gilteritinib 3 mg/kg/day Days 0-20, IP AraC 50 mg/kg/day Days 0-4, IV IDR 0.5 mg/kg/day Days 0-2) [%] | mean (±SEM) tumor weight on Day 21 (MV4-11 cells; AraC/DNR experiment, control 1.234±0.150 g) [g] | mean tumor weight on Day 21 (MV4-11 cells; AraC/IDR experiment, control 1.64±0.12 g) [g] | Inhibition of Tumor Growth (MOLM-13 cells [2]; by Day 16, gilteritinib 30 mg/kg alone (both experiments)) [%] | Inhibition of Tumor Growth (MOLM-13 cells [2]; table title day 21, AraC/IDR experiment: oral gilteritinib 30 mg/kg/day Days 0-15, IP AraC 50 mg/kg/day Days 0-4, IV IDR 0.5 mg/kg/day Days 0-2) [%] | percentage of annexin V-positive cells (MOLM-13 cells [3]; gilteritinib alone 30 nM) [%] | percentage of annexin V-positive cells (MOLM-13 cells [3]; gilteritinib alone 100 nM) [%] |
| --- | --- | --- | --- | --- | --- | --- | --- | --- | --- | --- | --- | --- | --- | --- | --- | --- |
| Nc1ncn([C@@H]2O[C@H](CO)[C@@H](O)[C@H]2O)c(=O)n1 [Aza, Azacitidine] | little effect | No significant differences | 0 | 5 | 37 | 21.9 | – | – | – | – | – | – | – | – | – | – |
| CCc1nc(C(N)=O)c(Nc2ccc(N3CCC(N4CCN(C)CC4)CC3)c(OC)c2)nc1NC1CCOCC1 [Gilteritinib] | strongly inhibited | No significant differences | 0 | 71 | 90 | – | 0 | 78 | 0 | 85 | 0.441 ± 0.076 | 0.53 ± 0.09 | ≥ 90 | 93 | 32.0 | 52.4 |
